Assay [1] deals with Gastrin/cholecystokinin type B receptor (Cavia porcellus). Nature of the assay: Displacement of [125I]- BH-CCK-8 from Cholecystokinin type B receptor of guinea pig cortex. For orientation: In a radioligand displacement assay an active substance lowers the binding of a labelled ligand.
The target is the same in assay [2]. The experiment in a line: Inhibitory activity against Cholecystokinin type B receptor using [125I]- BH-CCK-8 as radioligand in cortex tissue of guinea pig.

pIC50: −log10 of the molar value. *1 amine or outer side, *2 acyl side, *3 side chain or, on linkers, in order; H or OH if unused. Where a SMILES comes first, the peptide text is derived from it. Side-chain parts run from the residue outwards. [ ]: non-standard residue; d: D form. The star is where a group is joined. ξ: configuration not given here. NH(4-MeO-phenyl) = COc1ccc(N*)cc1; ξW = NC(Cc1c[nH]c2ccccc12)C(=O)O; pNA = O=[N+]([O-])c1ccc(N*)cc1; X2 = O=[N+]([O-])c1cccc(N*)c1; NH(3-MeOPh) = COc1cccc(N*)c1; 3Abz = Nc1cccc(C(=O)O)c1; ξF = NC(Cc1ccccc1)C(=O)O; X1 = CC(=O)c1ccc(N*)cc1; ξD = NC(CC(=O)O)C(=O)O; Boc = CC(C)(C)OC(=O)*; CO = O=C([*:1])[*:2]

For orientation: pIC50 means the negative decadic logarithm of the IC50, by convention in mol/L. Low values mean a high IC50, high ones a low IC50.

As to `COc1ccc(NC(=O)NCCCC[C@H](NC(=O)C(Cc2c[nH]c3ccccc23)NC(=O)OC(C)(C)C)C(=O)NC(CC(=O)O)C(=O)NC(Cc2ccccc2)C(N)=O)cc1` (stereo partly drawn) [3-{(S)-2-[2-tert-Butoxycarbonylamino-3-(1H-indol-3-yl)-propionylamino]-6-[3-(4-methoxy-phenyl)-ureido]-hexanoylamino}-N-(1-carbamoyl-2-phenyl-ethyl)-succinamic acid] (Boc-[ξW]K([CO-NH(4-MeO-phenyl)])[ξD][ξF]-NH2), in assay [1], the negative-log IC50 (pIC50) was 6.12. Still for that read-out and setting: to `COc1cccc(NC(=O)NCCCC[C@H](NC(=O)C(Cc2c[nH]c3ccccc23)NC(=O)OC(C)(C)C)C(=O)NC(CC(=O)O)C(=O)NC(Cc2ccccc2)C(N)=O)c1` (stereo partly drawn) [3-{(S)-2-[2-tert-Butoxycarbonylamino-3-(1H-indol-3-yl)-propionylamino]-6-[3-(3-methoxy-phenyl)-ureido]-hexanoylamino}-N-(1-carbamoyl-2-phenyl-ethyl)-succinamic acid] (Boc-[ξW]K([CO-NH(3-MeOPh)])[ξD][ξF]-NH2) belongs 5.85. The same measure, in the same setting: to `CC(=O)c1ccc(NC(=O)NCCCC[C@H](NC(=O)C(Cc2c[nH]c3ccccc23)NC(=O)OC(C)(C)C)C(=O)NC(CC(=O)O)C(=O)NC(Cc2ccccc2)C(N)=O)cc1` (stereo partly drawn) [3-{(S)-6-[3-(4-Acetyl-phenyl)-ureido]-2-[2-tert-butoxycarbonylamino-3-(1H-indol-3-yl)-propionylamino]-hexanoylamino}-N-(1-carbamoyl-2-phenyl-ethyl)-succinamic acid] (Boc-[ξW]K([CO-X1])[ξD][ξF]-NH2) belongs 7.92; to `COC(=O)c1cccc(NC(=O)NCCCC[C@H](NC(=O)C(Cc2c[nH]c3ccccc23)NC(=O)OC(C)(C)C)C(=O)NC(CC(=O)O)C(=O)NC(Cc2ccccc2)C(N)=O)c1` (some centres not stated) (Boc-[ξW]K([CO-3Abz-OMe])[ξD][ξF]-NH2), 6.00; to `CC(C)(C)OC(=O)NC(Cc1c[nH]c2ccccc12)C(=O)N[C@@H](CCCCNC(=O)Nc1ccc([N+](=O)[O-])cc1)C(=O)NC(CC(=O)O)C(=O)NC(Cc1ccccc1)C(N)=O` (stereo partly drawn) [3-{(S)-2-[2-tert-Butoxycarbonylamino-3-(1H-indol-3-yl)-propionylamino]-6-[3-(4-nitro-phenyl)-ureido]-hexanoylamino}-N-(1-carbamoyl-2-phenyl-ethyl)-succinamic acid] (Boc-[ξW]K([CO-pNA])[ξD][ξF]-NH2), 7.51. In assay [2], `CSCCC(NC(=O)NC(CC(=O)O)C(=O)NC(Cc1ccccc1)C(N)=O)C(=O)NC(=O)C(Cc1c[nH]c2ccccc12)NC(=O)OC(C)(C)C` (configuration not stated) [3-(3-{1-[2-tert-Butoxycarbonylamino-3-(1H-indol-3-yl)-propionylcarbamoyl]-3-methylsulfanyl-propyl}-ureido)-N-(1-carbamoyl-2-phenyl-ethyl)-succinamic acid] showed a negative logarithm of the IC50 (pIC50) of 7.60. In assay [1], `CC(C)(C)OC(=O)N[C@@H](Cc1c[nH]c2ccccc12)C(=O)N[C@@H](CCCCNC(=O)Nc1cccc([N+](=O)[O-])c1)C(=O)N[C@@H](CC(=O)O)C(=O)N[C@@H](Cc1ccccc1)C(N)=O` [3-{(S)-2-[2-tert-Butoxycarbonylamino-3-(1H-indol-3-yl)-propionylamino]-6-[3-(3-nitro-phenyl)-ureido]-hexanoylamino}-N-(1-carbamoyl-2-phenyl-ethyl)-succinamic acid] (Boc-WK([CO-X2])DF-NH2) showed a pIC50 of 5.92.

Values taken from BindingDB's records for doi:10.1021/jm960509y (Abbott Laboratories, 1997).
